# Assay results reported in patent US6641783B1, “Chromatographic systems with pre-detector eluent switching” (priority 1999, dated 2003).
# What was measured:
# [1] = Capacity factor of the test solute on a C8 HPLC column; assay type: physicochemical; conditions: 15% acetonitrile in PBS, 1 mL/min
# Source text: (§1) The chromatographic process represents a reversible equilibrium of solutes between the mobile phases and the stationary phases. The magnitude of solute retention is a direct result from this equilibrium and is typically expressed by a parameter, the capacity factor, k′=(tr−to)/to where to is the dead time and tr is the retention time of the solutes. The capacity factor is therefore a stoichiometric mass distribution equilibrium of solutes between the mobile phases and the stationary phases, and its determination allows the calculation of various physicochemical values according to pre-determined algorithms.
# (§2) Unless otherwise indicated, the experimental data reported in this section was collected under the following conditions: UV detection at 280 nm, UV flow cell: 14 μL, mobile phase: 15% acetonitrile in PBS buffer at 1 mL/min., injection volume: 10 μL (sample amount: 2 μg), eluent switch rate: 1 Hz/column, and one pump per column (one binary pump used at two different pumps).
# (§3) Retention time data is reported as capacity factors k′=(tr−to)/to. The most critical preliminary data to obtain, however, was to experimentally determine the minimum peak washing times (volumes) needed to obtain good chromatographic peak characterization with the hardware designed and assembled as shown in FIG. 7. […]
# [2] = Capacity factor of the test solute on an immobilized artificial membrane HPLC column; assay type: physicochemical; conditions: EsterIAM.PC C10/C3 column, 15% acetonitrile in PBS, 1 mL/min
# Source text: as §1, §2, §3
# [3] = Eluent Switch (parallel chromatography), 1 Hz/column
# [4] = No Switch (single column chromatography)
structure (smiles),measurement,setting,value
COc1ccc(C)cc1 [4-methylanisole],k′ (Capacity factor),[1]; [3],23.71
same,k′ (Capacity factor),[1]; [4],23.04
same,k′ (Capacity factor),[2]; [3],7.13
same,k′ (Capacity factor),[2]; [4],7.48
